≈ marks a conversion by molar mass, not a printed value.
Test system: not listed separately
Assay: Antioxidant activity assessed as reduction in AAPH free radical-induced linoleic acid peroxidation activity measured at 100 ug/ml by UV spectroscopic analysis
Format: functional
Design: scale not given: the % may be the effect or the level left
Conditions: not given

Compound | Activity
Cc1c(C)c2c(c(C)c1O)CCC(C)(C(=O)O)O2 (stereo not drawn) | 62.3%
O=[N+]([O-])c1ccc(C(N2CCOCC2)N2C(c3ccccc3)CC(O)N2c2ccc([N+](=O)[O-])cc2[N+](=O)[O-])cc1 (stereo not drawn) | 47.9%

Test system: Staphylococcus epidermidis
Assay: Antibacterial activity against Staphylococcus epidermidis after 24 hrs by two fold dilution method
Format: functional
Conditions: not given

Compound | MIC
O=[N+]([O-])c1ccc(C(N2CCOCC2)N2C(c3ccccc3)CC(O)N2c2ccc([N+](=O)[O-])cc2[N+](=O)[O-])cc1 (stereo not drawn) | 2 µg/mL (≈ 3.63 µM)
O=C(O)c1cn(C2CC2)c2cc(N3CCNCC3)c(F)cc2c1=O [CIPROFLOXACIN] | 4 µg/mL (≈ 12.1 µM)

Test system: Staphylococcus aureus
Assay: Antibacterial activity against Staphylococcus aureus after 24 hrs by two fold dilution method
Format: functional
Conditions: not given

Compound | MIC
O=[N+]([O-])c1ccc(C(N2CCOCC2)N2C(c3ccccc3)CC(O)N2c2ccc([N+](=O)[O-])cc2[N+](=O)[O-])cc1 (stereo not drawn) | 1 µg/mL (≈ 1.82 µM)
O=C(O)c1cn(C2CC2)c2cc(N3CCNCC3)c(F)cc2c1=O [CIPROFLOXACIN] | 0.5 µg/mL (≈ 1.51 µM)

Test system: not listed separately
Assay: Antioxidant activity assessed as ABTS radical scavenging activity at 100 ug/ml after 30 mins
Format: functional
Conditions: not given

Compound | Activity
Cc1c(C)c2c(c(C)c1O)CCC(C)(C(=O)O)O2 (stereo not drawn) | 85.2%
O=[N+]([O-])c1ccc(C(N2CCOCC2)N2C(c3ccccc3)CC(O)N2c2ccc([N+](=O)[O-])cc2[N+](=O)[O-])cc1 (stereo not drawn) | 58.3%

Test system: Klebsiella pneumoniae
Assay: Antibacterial activity against Klebsiella pneumoniae after 24 hrs by two fold dilution method
Format: functional
Conditions: not given

Compound | MIC
O=C(O)c1cn(C2CC2)c2cc(N3CCNCC3)c(F)cc2c1=O [CIPROFLOXACIN] | 2 µg/mL (≈ 6.04 µM)

Test system: not listed separately
Assay: Antifungal activity against Cryptococcus neoformans after 24 hrs by two fold dilution method
Format: functional
Conditions: not given

Compound | MIC
O=[N+]([O-])c1ccc(C(N2CCOCC2)N2C(c3ccccc3)CC(O)N2c2ccc([N+](=O)[O-])cc2[N+](=O)[O-])cc1 (stereo not drawn) | 32 µg/mL (≈ 58.1 µM)

Test system: not listed separately
Assay: Cytotoxicity against human HeLa cells after 48 hrs by MTT assay
Format: functional
Conditions: not given

Compound | GI50 | LC50 | TGI
O=[N+]([O-])c1ccc(C(N2CCOCC2)N2C(c3ccccc3)CC(O)N2c2ccc([N+](=O)[O-])cc2[N+](=O)[O-])cc1 (stereo not drawn) | 8.9 µM | 43.9 µM | 16.8 µM
COc1cccc2c1C(=O)c1c(O)c3c(c(O)c1C2=O)C[C@@](O)(C(=O)CO)C[C@@H]3O[C@H]1C[C@H](N)[C@H](O)[C@H](C)O1 [DOXORUBICIN] | 0.05 µM |  | 0.41 µM

Test system: not listed separately
Assay: Antifungal activity against Microsporum audouinii after 24 hrs by two fold dilution method
Format: functional
Conditions: not given

Compound | MIC
O=[N+]([O-])c1ccc(C(N2CCOCC2)N2C(c3ccccc3)CC(O)N2c2ccc([N+](=O)[O-])cc2[N+](=O)[O-])cc1 (stereo not drawn) | 32 µg/mL (≈ 58.1 µM)

Test system: Pseudomonas aeruginosa
Assay: Antibacterial activity against Pseudomonas aeruginosa after 24 hrs by two fold dilution method
Format: functional
Conditions: not given

Compound | MIC
O=C(O)c1cn(C2CC2)c2cc(N3CCNCC3)c(F)cc2c1=O [CIPROFLOXACIN] | 1 µg/mL (≈ 3.02 µM)

Test system: not listed separately
Assay: Cytotoxicity against human MCF7 cells after 48 hrs by MTT assay
Format: functional
Conditions: MCF7, 48 h

Compound | GI50 | LC50 | TGI
O=[N+]([O-])c1ccc(C(N2CCOCC2)N2C(c3ccccc3)CC(O)N2c2ccc([N+](=O)[O-])cc2[N+](=O)[O-])cc1 (stereo not drawn) | 20.8 µM | > 100 µM | 59.3 µM
COc1cccc2c1C(=O)c1c(O)c3c(c(O)c1C2=O)C[C@@](O)(C(=O)CO)C[C@@H]3O[C@H]1C[C@H](N)[C@H](O)[C@H](C)O1 [DOXORUBICIN] | 0.02 µM |  | 0.21 µM

Test system: Escherichia coli
Assay: Antibacterial activity against Escherichia coli after 24 hrs by two fold dilution method
Format: functional
Conditions: not given

Compound | MIC
O=[N+]([O-])c1ccc(C(N2CCOCC2)N2C(c3ccccc3)CC(O)N2c2ccc([N+](=O)[O-])cc2[N+](=O)[O-])cc1 (stereo not drawn) | 64 µg/mL (≈ 116 µM)

Test system: not listed separately
Assay: Cytotoxicity against human HepG2 cells after 48 hrs by MTT assay
Format: functional
Conditions: HepG2, 48 h

Compound | GI50 | LC50 | TGI
O=[N+]([O-])c1ccc(C(N2CCOCC2)N2C(c3ccccc3)CC(O)N2c2ccc([N+](=O)[O-])cc2[N+](=O)[O-])cc1 (stereo not drawn) | 49 µM | > 100 µM | 77.3 µM
COc1cccc2c1C(=O)c1c(O)c3c(c(O)c1C2=O)C[C@@](O)(C(=O)CO)C[C@@H]3O[C@H]1C[C@H](N)[C@H](O)[C@H](C)O1 [DOXORUBICIN] | 0.01 µM |  | 0.13 µM

Reference: ChEMBL document CHEMBL3872243, “Synthesis of new morpholine-connected pyrazolidine derivatives and their antimicrobial, antioxidant, and cytotoxic activities” (2017)
